A short description of data set [1]: Ionisation constants by potentiometric titration. Type of data set: physicochemical. The following applies: read-out: pKa expérimental. The protocol: Les constantes d'ionisation sont déterminées expérimentalement par titrage potentiométrique suivant les conditions opératoires décrites ci-dessous et évaluées par le logiciel de prédiction ACD/pK DB, Version 5.12.
Conditions opératoires du titrage potentiométrique • Matériel utilisé : (Radiometer-Tacussel) : • titrateur TIM 900 • passeur d'échantillons SAC 90 • logiciel Tim Talk 9 • - Prise d'essai : 10^-4 mole • - Mise en solution : (solubilisation avec passeur d'échantillons) • 5 ml du mélange DMSO 70 / Ethanol 10 / Eau 20 (agitation 3 minutes avec barbotage d'azote) • 10 ml d'une solution de NaCl 0.225M dans eau 80 / DMSO 20 (agitation 3 minutes avec barbotage d'azote) • - Méthode de titrage : • Etalonnage de l'électrode entre pH4 et pH10 • Titrage direct par NaOH 1N ou après ajout d'HCl 1N • Détection d'inflexion avec ajout continu du titrant • vitesse d'addition mini : 1%/min • vitesse d'addition maxi : 1%/min • Flux d'azote à la surface de la solution pendant le titrage • - Calculs : • 2 fonctions polynomiales sont utilisées pour obtenir le pKa dans l'eau en milieu NaCl 0.15M : • pour les fonctions acides : pKaH2O = -0,0208(pKasolvant)^2 + 1,257pKasolvant - 1,6 • pour les fonctions basiques :pKaH2O = -0,0208(pKasolvant)^2 + 1,257pKasolvant - 0,75

The test system of data set [2] is Candida albicans. Put plainly: Minimal inhibitory concentration (CMI), Alamar Blue broth method. Conditions: ATCC10231, ATCC #10231, lowest concentration with growth inhibition ≥ 90%, 16 h contact at 37°C. Type of data set: cell-based. An excerpt: (§1) La méthode de détermination de l'activité anti-microbienne des composés selon l'invention fait intervenir la mesure de la Concentration Minimale Inhibitrice (CMI) vis-à-vis de 2 bactéries gram- (E. coli et P. aeruginosa), d'une bactérie gram+ (S. aureus) et d'une levure (C. albicans). Cette méthode a été effectuée selon la méthode décrite dans les articles suivants: - Baker C.N., Banerjee S.N. and Tenover F.C. : Evaluation of Alamar colorimetric MIC Method for antimicrobial susceptibility testing of gram-negative bacteria. J. Clin. Microbiol. (1994), 32, 1261-1267; - Baker C.N. and Tenover F.C. : Evaluation of Alamar colorimetric broth microdilution susceptibility testing method for staphylococci and enterococci. J. Clin. Microbiol. (1996), 34, 2654-2659. Les souches bactériennes utilisées au départ sous forme de disques lyophilisés calibrés sont réhydratées en suivant les indications du fournisseur (Fisher Scientific S.A.)
(§2) Les souches sont ensemencées dans du milieu Trypto-caseine-soja. La mise en contact du composé à tester solubilisé dans l'eau, avec les souches en phase de croissance s'effectue en milieu liquide. Après 16 heures de contact du composé avec les bactéries (37°C), de l'Alamar Blue est ajouté comme indicateur métabolique de la viabilité de cellules variées et de bactéries. La réduction de l'indication est proportionnelle à l'activité métabolique des bactéries. A l'issue de l'incubation d'une durée de 2h (sauf pour C. albicans pour laquelle l'incubation est de 4h), l'activité métabolique des bactéries est évaluée par une lecture en absorbance ou en fluorescence. En fluorescence, les lectures sont réalisées à 544nm (Excitation) et à 590nm (Emission). Les composés les plus actifs sont sélectionnés et un effet dose (8 concentrations) est ensuite réalisé comme précédemment. La Concentration Minimale Inhibitrice (C.M.I.) a alors été déterminée comme étant la concentration la plus faible du composé testé pour laquelle était observée une inhibition de croissance de la bactérie ou de la levure ≥ 90%.

Data set [3] deals with Escherichia coli. Described as above. The following applies: ATCC8739, ATCC #8739, lowest concentration with growth inhibition ≥ 90%, 16 h contact at 37°C, read-out: CMI E.coli. Format: cell-based.
Source text: as §1, §2

Data set [4] relates to Pseudomonas aeruginosa. Described as above. Type of data set: cell-based. Conditions: ATCC9027, ATCC #9027, lowest concentration with growth inhibition ≥ 90%, 16 h contact at 37°C, read-out: CMI P.aeruginosa.
Source text: as §1, §2

Data set [5] deals with Staphylococcus aureus. The data set is described as above. Type of data set: cell-based. The following applies: ATCC6538, ATCC #6538, lowest concentration with growth inhibition ≥ 90%, 16 h contact at 37°C, read-out: CMI S.aureus.
Source text: as §1, §2

Where [6] appears, read: water, nacl 0.15m, dans l'eau, NaCl 0,15M, reference molecules entered in the database used for the prediction.

This passage reports pKa and MIC results from EP1437348A1, “6-methyl-2,4-diamino-pyrimidine derivatives, process for preparation, compositions containing them and their uses as basic neutralising agents” (L'OREAL, priority 2003, dated 2004).

Converted amounts (≈) assume the structure as drawn. Read-outs that look alike come from different tables or passages of the source.

A word on the pKa: it is the negative logarithm of the acid dissociation constant.

Take `Nc1ncccn1` [2-aminopyrimidine, reference compound]: the pKa in data set [1] (setting [6]) was 3.9.
Still for that read-out and setting: the figure for `Nc1ccncn1` [4-aminopyrimidine, reference compound] is 6.
As to `Cc1cc(NCc2ccco2)nc(N)n1` [Comparatif (DE 3717480), reference compound], the MIC in data set [2] is over 10000 µg/mL; in data set [3] it was over 10000 µg/mL; in data set [4], over 10000 µg/mL; in data set [5], 626 µg/mL (≈ 3.06 mM).
Regarding `Nc1nc(N2CCCCC2)cc(C(F)(F)F)n1` [Comparatif (DE 19917784), reference compound], the MIC in data set [2], in data set [3], in data set [4] and in data set [5] was over 5000 µg/mL in each case.
Consider `CO[Si](C)(C)CCCCNc1cc(C)nc(N)n1` [Composé A, 4-N-[4-(méthoxy-dimethylsilyl)-butyl]-6-methyl-pyrimidine - 2,4-diamine], for which the MIC amounted to 156 µg/mL (≈ 0.581 mM) in data set [2], 78 µg/mL (≈ 0.291 mM) in data set [3], 156 µg/mL (≈ 0.581 mM) in data set [4] and 78 µg/mL (≈ 0.291 mM) in data set [5].
On to `Cc1cc(NCC2CCNCC2)nc(N)n1` [Composé B, 4-N-[4-piperidinylmethyl]-6-methyl-pyrimidine-2,4-diamine], for which the MIC in data set [2] turned out to be 5000 µg/mL (≈ 22.6 mM); in data set [3], 1250 µg/mL (≈ 5.65 mM); in data set [4] it was 250 µg/mL (≈ 1.13 mM); in data set [5], 2500 µg/mL (≈ 11.3 mM).
The like results for `Cc1cc(NC[C@@H]2CCCN2)nc(N)n1` [Composé C] were, in that order, 2500 µg/mL (≈ 12.1 mM), 5000 µg/mL (≈ 24.1 mM), 5000 µg/mL (≈ 24.1 mM) and 2500 µg/mL (≈ 12.1 mM).
For the compound `Cc1cc(N2CCCN(CCCN3CCCC3)CC2)nc(N)n1` [Composé D, 4-methyl-6-[4-(3-pyrrolidin-1-yl-propyl)-[1,4]diazepan-1-yl]-pyrimidin-2-ylamine], the MIC in data set [3] was 5000 µg/mL (≈ 15.7 mM); in data set [4], over 5000 µg/mL; in data set [5], 5000 µg/mL (≈ 15.7 mM).
Turning to `Cc1cc(N2CCc3cc(O)c(O)cc3C2)nc(N)n1` [Composé E, 2-(2-amino-6-methyl-pyrimidin-4-yl)-1,2,3,4-tetrahydro-isoquinoline-6,7-diol], the MIC was 1250 µg/mL (≈ 4.59 mM) in data set [2], 625 µg/mL (≈ 2.3 mM) in data set [3], 5000 µg/mL (≈ 18.4 mM) in data set [4] and 1250 µg/mL (≈ 4.59 mM) in data set [5].
Take `Cc1cc(N2CCN(CCN(C)C)CC2)nc(N)n1` [Composé F, 4-[4-(2-dimethylamino-ethyl)-piperazin-1-yl]-6-methyl-pyrimidin-2-ylamine]: the MIC is 5000 µg/mL (≈ 18.9 mM) in data set [2], 2500 µg/mL (≈ 9.46 mM) in data set [3], over 5000 µg/mL in data set [4] and 5000 µg/mL (≈ 18.9 mM) in data set [5].
As for `Cc1cc(NCC(C)(C)N)nc(N)n1` [Composé G, N4-(2-amino-2-methyl-propyl)-6-methyl-pyrimidine-2,4-diamine], the MIC amounted to 2500 µg/mL (≈ 12.8 mM) in data set [2], 2500 µg/mL (≈ 12.8 mM) in data set [3], 2500 µg/mL (≈ 12.8 mM) in data set [4] and 5000 µg/mL (≈ 25.6 mM) in data set [5].
Take `Cc1cc(NCCN2CCNCC2)nc(N)n1` [Composé H, 4-N-(2-piperazin-1-yl-ethyl)-6-methyl-pyrimidine – 2,4-diamine]: the MIC in data set [2] is 2500 µg/mL (≈ 10.6 mM); in data set [3], 2500 µg/mL (≈ 10.6 mM); in data set [4], 5000 µg/mL (≈ 21.2 mM); in data set [5], 1250 µg/mL (≈ 5.29 mM).
`Cc1cc(NCc2ccc(C)o2)nc(N)n1` [Composé I, 4-N-(5-methyl-furan-2-ylmethyl)---6-methyl-pyrimidine – 2,4-diamine]: the MIC in data set [2] was found to be 625 µg/mL (≈ 2.86 mM); in data set [3], 1250 µg/mL (≈ 5.73 mM); in data set [4] it was 2500 µg/mL (≈ 11.5 mM); in data set [5], 625 µg/mL (≈ 2.86 mM).
Turning to `Cc1cc(N2CCN(C3CCN(C)CC3)CC2)nc(N)n1` [Composé J, 4-methyl-6-[4-(1-methyl-piperidin-4-yl)-piperazin-1-yl]-pyrimidin-2-ylamine], the MIC in data set [2] is 5000 µg/mL (≈ 17.2 mM); in data set [3] it was 2500 µg/mL (≈ 8.61 mM); in data set [4], over 5000 µg/mL; in data set [5] it was 5000 µg/mL (≈ 17.2 mM).
Regarding `Cc1cc(N2CCN(c3ncccn3)CC2)nc(N)n1` [Composé K, 4-methyl-6-(4-pyrimidin-2-yl-piperazin-1-yl)-pyrimidin-2-ylamine], the MIC in data set [2] was 625 µg/mL (≈ 2.3 mM); in data set [3] it was 2500 µg/mL (≈ 9.21 mM); in data set [4] it was over 5000 µg/mL; in data set [5], 5000 µg/mL (≈ 18.4 mM).
The like results for `Cc1cc(NCC2CCCC(CN)C2)nc(N)n1` (stereo not drawn) [Composé L, 4-N-(3-aminomethyl-cyclohexylmethyl)-6-methyl-pyrimidine-2,4-diamine] were, in that order, 1250 µg/mL (≈ 5.01 mM), 2500 µg/mL (≈ 10 mM), 2500 µg/mL (≈ 10 mM) and 2500 µg/mL (≈ 10 mM).
For the compound `CCCCCCNc1cc(C)nc(N)n1` [Composé N, 4-N-Hexyl-6-methyl-pyrimidine-2,4-diamine], the pKa in data set [1] (function NH^+/N (pyrimidine motif), pKa in water, NaCl 0.15M, obtained from the solvent pKa by a polynomial function) was 8.35. In addition, the MIC in data set [2] stood at 160 µg/mL (≈ 0.768 mM); in data set [3] it was 310 µg/mL (≈ 1.49 mM); in data set [4], 2500 µg/mL (≈ 12 mM); in data set [5] it was 630 µg/mL (≈ 3.02 mM).
For `COc1cccc(Nc2cc(C)nc(N)n2)c1` [reference compound], the MIC was 1250 µg/mL (≈ 5.43 mM) in data set [2], over 5000 µg/mL in data set [3], over 5000 µg/mL in data set [4] and over 5000 µg/mL in data set [5].
